This is an account of results in PubChem BioAssay (NCI).

Some test systems named below: NCI-H226 lung; NCI-H460 lung; NCI-H522 lung; SF-268 CNS; SK-MEL-2 melanoma; SNB-75 CNS; UACC-257 melanoma; CAKI-1 renal; SR leukemia; PC-3 prostate.
What all share (assay): inhibition of tumour cell growth, NCI panel, 48 h

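Values below derive from 48-hour exposures of cells grown in 96-well plates, with endpoints linearly interpolated between the two concentrations bracketing the appropriate inhibition level. TGI denotes the concentration required for complete inhibition of growth.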

Take `O=[N+]([O-])c1cnccc1-n1nnc2ccccc21`: the TGI with NCI-H226 lung was 49.8 µM; in the assay with NCI-H460 lung, over 87 µM; in the assay with NCI-H522 lung, 38.5 µM; in the assay with SF-268 CNS, over 62.3 µM; in the assay with SK-MEL-2 melanoma, 35.8 µM; in the assay on SNB-75 CNS, 54.1 µM. Also, the TGI with UACC-257 melanoma came out at 51.4 µM.

For the molecule `O=c1n(CC2CO2)c2ccccc2n1CC1CS1` (stereo not given), the TGI with CAKI-1 renal, in the assay on NCI-H226 lung, in the assay with NCI-H460 lung, in the assay on NCI-H522 lung, with SF-268 CNS and with SK-MEL-2 melanoma was over 100 µM in each case. The molecule further gave a TGI in the assay on SR leukemia of over 100 µM.

Consider `COc1ccc(Nc2cnc3cc(N)ccc3n2)cc1OC`, for which the TGI with NCI-H226 lung, in the assay on NCI-H460 lung, in the assay with SF-268 CNS, with SK-MEL-2 melanoma, with SNB-75 CNS and in the assay on SR leukemia was over 100 µM throughout. Besides, the TGI in the assay with UACC-257 melanoma was over 100 µM.

Turning to `Cc1ccc(S(=O)(=O)N/N=C2/C3CC4CCC2C4C3)cc1` (stereo not given), the TGI in the assay on CAKI-1 renal, in the assay with NCI-H226 lung, in the assay on NCI-H460 lung, in the assay with NCI-H522 lung, with PC-3 prostate and in the assay on SF-268 CNS was over 100 µM each time. The TGI with SNB-75 CNS and with UACC-257 melanoma was over 100 µM in each case.

`COC(=O)CC(c1ccccc1)C(C#N)(OP1(=O)OC(c2ccccc2)C(C)N1C)c1ccccc1` (stereo not given): the TGI in the assay with CAKI-1 renal is over 100 µM; in the assay on NCI-H460 lung it was over 100 µM; in the assay with NCI-H522 lung it was over 100 µM; in the assay with PC-3 prostate it was over 100 µM; in the assay on SF-268 CNS, over 100 µM; in the assay on SK-MEL-2 melanoma it was 92.6 µM. Further, the TGI in the assay on SNB-75 CNS and in the assay with UACC-257 melanoma was over 100 µM each time.

Regarding `O=c1[nH]nc(-c2ccccc2)c2[nH]c3c(c12)CCCc1ccccc1-3`, the TGI was over 100 µM in the assay on CAKI-1 renal; 37.5 µM with NCI-H226 lung; 60 µM with NCI-H460 lung; 27.1 µM in the assay on NCI-H522 lung; 58.5 µM in the assay on PC-3 prostate; over 100 µM with SF-268 CNS. In addition, the results for the TGI in the assay on SR leukemia and in the assay on UACC-257 melanoma were 69.9 µM and 44.5 µM, respectively.

For the molecule `O=C(O)Cc1ccc(-n2nnc3c(=O)[nH][nH]c(=O)c32)cc1`, the TGI in the assay on CAKI-1 renal, with NCI-H460 lung, with PC-3 prostate, in the assay on SK-MEL-2 melanoma, in the assay with SR leukemia and in the assay on UACC-257 melanoma was over 100 µM in each case.

In the case of `Cc1cc(NS(=O)(=O)c2ccc(N=Nc3c(Nc4ccccc4)nn(-c4ccc(S(=O)(=O)Nc5ccncn5)cc4)c3C)cc2)no1`, the TGI in the assay on CAKI-1 renal, with NCI-H226 lung, in the assay on NCI-H522 lung, in the assay on PC-3 prostate, in the assay on SK-MEL-2 melanoma and in the assay on SNB-75 CNS was over 100 µM in each case. The TGI in the assay on UACC-257 melanoma is over 100 µM.

On to `CC1(C)CC(=O)C(/C=N/c2nc(-c3cccc([N+](=O)[O-])c3)cs2)=C(O)C1`, for which the TGI is 23.4 µM with CAKI-1 renal; 36.5 µM with NCI-H226 lung; 27.8 µM in the assay with NCI-H460 lung; 23.7 µM in the assay on NCI-H522 lung; over 100 µM in the assay with PC-3 prostate; 44.1 µM in the assay on SF-268 CNS. Moreover, the TGI with SK-MEL-2 melanoma was over 100 µM; with SNB-75 CNS, 59.9 µM; with UACC-257 melanoma, 49.7 µM.

On to `Cc1nc2ccccc2n1Cc1ccc(NC(=S)NC2CCCCC2)cc1`, for which the TGI in the assay on CAKI-1 renal, in the assay on NCI-H226 lung, with NCI-H460 lung, in the assay with NCI-H522 lung, with PC-3 prostate and with SF-268 CNS was over 100 µM each time. In addition, the figures for the TGI with SK-MEL-2 melanoma, with SNB-75 CNS and in the assay with UACC-257 melanoma were over 100 µM, over 84.7 µM and over 95.1 µM, respectively.

With `COc1ccc(OC/C(N=Cc2cccnc2)=N/NC(=O)c2ccncc2)cc1`, the TGI was over 100 µM with CAKI-1 renal; over 100 µM in the assay on NCI-H226 lung; over 100 µM with NCI-H460 lung; 34 µM in the assay on NCI-H522 lung; over 100 µM in the assay with PC-3 prostate; over 100 µM with SF-268 CNS. In addition, the TGI was over 100 µM in the assay with SK-MEL-2 melanoma, 85.2 µM in the assay on SNB-75 CNS and over 100 µM in the assay on UACC-257 melanoma.

For `O=c1ccc2c(Cl)sc(Cl)c2[nH]1`, the TGI with CAKI-1 renal, in the assay on NCI-H460 lung, with NCI-H522 lung, in the assay with PC-3 prostate, with SF-268 CNS and with SK-MEL-2 melanoma was over 100 µM throughout. Also, the TGI in the assay on SNB-75 CNS and with UACC-257 melanoma was over 100 µM throughout.

Take `CCOC(=O)C(/C=N/C(N)=S)=C(/O)c1ccccc1`: the TGI in the assay on CAKI-1 renal, in the assay with NCI-H226 lung, in the assay on NCI-H460 lung, in the assay on SF-268 CNS, in the assay with SK-MEL-2 melanoma and in the assay with SNB-75 CNS was over 100 µM each time. Besides, the TGI with UACC-257 melanoma is over 100 µM.

For the molecule `Cc1cn(C2CC(/[N+]([O-])=N\Nc3ccc([N+](=O)[O-])cc3)C(CO)O2)c(=O)[nH]c1=O` (stereo not given), the TGI in the assay on CAKI-1 renal, with NCI-H226 lung, in the assay on NCI-H460 lung, with NCI-H522 lung, with PC-3 prostate and in the assay on SF-268 CNS was over 100 µM in each case. For the same molecule, the TGI in the assay on SR leukemia and with UACC-257 melanoma was over 100 µM each time.

With `CCOC(=O)C(C(=O)OCC)C(=S)NC1OC(COC(C)=O)C(OC(C)=O)C(OC(C)=O)C1OC(C)=O` (stereo not given), the TGI with CAKI-1 renal, in the assay with NCI-H226 lung, in the assay on NCI-H460 lung, in the assay on NCI-H522 lung, in the assay with SF-268 CNS and with SK-MEL-2 melanoma was over 100 µM in each case. Besides, the TGI in the assay with SR leukemia and with UACC-257 melanoma was over 100 µM throughout.

`COc1ccccc1N1C(=O)/C(=C\c2ccccc2)SC1c1cc(OC)c(OC)c(OC)c1` (stereo not given): the TGI in the assay on CAKI-1 renal is over 100 µM; in the assay on NCI-H226 lung, over 100 µM; in the assay on NCI-H522 lung, 74.3 µM; in the assay on PC-3 prostate, 68.9 µM; in the assay on SF-268 CNS, over 100 µM; in the assay with SK-MEL-2 melanoma, 33 µM. Besides, the TGI in the assay with SR leukemia and in the assay on UACC-257 melanoma was over 100 µM throughout.

As to `NCCCCNCCCNC(=O)c1csc(-c2nc(CCN)sc2Cl)n1`, the TGI in the assay on NCI-H226 lung, in the assay with NCI-H460 lung, in the assay on PC-3 prostate, in the assay on SF-268 CNS, in the assay on SNB-75 CNS and with UACC-257 melanoma was over 100 µM in each case.
